Laboratory results taken from patent publication US20150252048A1, “SUBSTITUTED N-(3-PYRIMIDIN-4-YL)PHENYL)ACRYLAMIDE ANALOGS AS TYROSINE RECEPTOR KINASE BTK INHIBITORS” (UNIVERSITY OF UTAH RESEARCH FOUNDATION, priority 2012, published 2015).
Read-outs that look alike come from different tables or passages of the source.

Legend:
Microsomal stability [1] = assay type: in vitro ADME, rat; settings: for Compound Remaining: rat microsomes 0.5 mg protein/mL, 1 μM
Procedure: (§1) Data were also obtained for the stability of Compound 3 when incubated with a microsomal preparation. Drug metabolism can occur, at least in part, in cellular microsomes, and thus the assay assesses the stability of drug to metabolic modification. The concentration of compound 3 was 1 μM in the assay system and the indicated microsomes were present at 0.5 mg total protein per milliliter. The concentration of intact drug was determined at the indicated timepoints using a LC-MS/MS assay. The enzyme activity of the microsomes used in this study were assessed using a positive control, testosterone.

JAK3 = biological target: T1, JAK3 (Homo sapiens, UniProt P52333); experiment: Specific kinase IC50 assay; assay type: biochemical; settings: 1 μM ATP, 10-dose, duplicate
T1 sequence (P52333 1-1124): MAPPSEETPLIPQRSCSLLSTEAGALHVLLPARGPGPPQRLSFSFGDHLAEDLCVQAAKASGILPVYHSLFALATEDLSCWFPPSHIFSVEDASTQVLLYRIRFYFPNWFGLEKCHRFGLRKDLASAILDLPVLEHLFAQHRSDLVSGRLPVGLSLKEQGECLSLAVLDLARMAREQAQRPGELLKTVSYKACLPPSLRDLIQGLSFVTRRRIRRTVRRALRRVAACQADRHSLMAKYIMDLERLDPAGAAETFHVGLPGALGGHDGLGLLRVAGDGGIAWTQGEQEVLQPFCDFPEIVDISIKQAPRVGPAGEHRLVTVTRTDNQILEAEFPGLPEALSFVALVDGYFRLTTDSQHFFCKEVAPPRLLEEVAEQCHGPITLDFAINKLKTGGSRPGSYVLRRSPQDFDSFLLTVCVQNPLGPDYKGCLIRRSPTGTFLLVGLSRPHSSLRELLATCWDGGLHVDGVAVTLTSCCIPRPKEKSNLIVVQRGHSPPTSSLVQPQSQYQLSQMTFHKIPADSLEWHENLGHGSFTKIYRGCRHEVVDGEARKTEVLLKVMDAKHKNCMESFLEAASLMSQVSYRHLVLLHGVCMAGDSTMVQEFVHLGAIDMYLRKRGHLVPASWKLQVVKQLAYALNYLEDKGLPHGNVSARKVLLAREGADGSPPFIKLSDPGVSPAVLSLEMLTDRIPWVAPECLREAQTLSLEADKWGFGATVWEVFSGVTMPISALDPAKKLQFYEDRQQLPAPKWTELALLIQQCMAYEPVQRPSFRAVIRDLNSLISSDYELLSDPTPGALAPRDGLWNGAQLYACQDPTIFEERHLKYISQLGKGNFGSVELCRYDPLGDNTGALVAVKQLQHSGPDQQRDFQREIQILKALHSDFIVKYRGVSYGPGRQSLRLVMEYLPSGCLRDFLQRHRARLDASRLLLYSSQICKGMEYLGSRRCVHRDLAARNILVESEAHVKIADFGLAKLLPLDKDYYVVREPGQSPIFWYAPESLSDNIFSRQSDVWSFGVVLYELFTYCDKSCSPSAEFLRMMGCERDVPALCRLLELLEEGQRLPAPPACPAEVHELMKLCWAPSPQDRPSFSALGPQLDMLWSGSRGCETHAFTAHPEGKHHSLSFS
Procedure: The assays were carried out in the presence of 1 μM ATP and were conducted in a 10-dose format in duplicate with three-fold serial dilutions starting at 10 μM.

Pharmacokinetics in mice = assay type: in vivo; settings: mouse, plasma
Procedure: The pharmacokinetic behavior of a representative disclosed compound, compound 3 (N-(3-(6-((3-morpholinophenyl)amino)-1H-pyrazolo[3,4-d]pyrimidin-4-yl)phenyl)acrylamide), which corresponds to compound 3 in Table I, was evaluated in mice. As used herein, “test compound” refers to compound 3. The study was carried out using three animals per dosing group. Animals were dosed as follows: a) Group 1 were administered 5 mg/kg of test compound by i.v. administration; b) Group 2 were dosed at 10 mg/kg by oral gavage using the base form of the test compound; and c) Group 3 were dosed at 10 mg/kg by oral gavage using a HCl salt of the test compound. Plasma concentration of the test compound was determined on samples take at the following time points: 0.08, 0.25, 0.50, 1, 2, 4, 8, and 24 hrs. Individual values were within 25% of the mean.

Microsomal stability [2] = assay type: in vitro ADME, mouse; settings: for Compound Remaining: mouse microsomes 0.5 mg protein/mL, 1 μM; for half-life at 1 μM: mouse, microsomes
Procedure: as §1

Microsomal stability [3] = assay type: in vitro ADME, human; settings: for Compound Remaining: human microsomes 0.5 mg protein/mL, 1 μM
Procedure: as §1

HERG channel = biological target: T2, HERG channel (Homo sapiens, UniProt Q12809); experiment: Predictor hERG Fluorescence Polarization Assay; assay type: binding; settings: membrane preparation with overexpressed HERG channels, 10-point, duplicate
T2 construct: purchased Invitrogen; host or cells: membrane preparation with overexpressed HERG channels
T2 sequence (Q12809 whole entry): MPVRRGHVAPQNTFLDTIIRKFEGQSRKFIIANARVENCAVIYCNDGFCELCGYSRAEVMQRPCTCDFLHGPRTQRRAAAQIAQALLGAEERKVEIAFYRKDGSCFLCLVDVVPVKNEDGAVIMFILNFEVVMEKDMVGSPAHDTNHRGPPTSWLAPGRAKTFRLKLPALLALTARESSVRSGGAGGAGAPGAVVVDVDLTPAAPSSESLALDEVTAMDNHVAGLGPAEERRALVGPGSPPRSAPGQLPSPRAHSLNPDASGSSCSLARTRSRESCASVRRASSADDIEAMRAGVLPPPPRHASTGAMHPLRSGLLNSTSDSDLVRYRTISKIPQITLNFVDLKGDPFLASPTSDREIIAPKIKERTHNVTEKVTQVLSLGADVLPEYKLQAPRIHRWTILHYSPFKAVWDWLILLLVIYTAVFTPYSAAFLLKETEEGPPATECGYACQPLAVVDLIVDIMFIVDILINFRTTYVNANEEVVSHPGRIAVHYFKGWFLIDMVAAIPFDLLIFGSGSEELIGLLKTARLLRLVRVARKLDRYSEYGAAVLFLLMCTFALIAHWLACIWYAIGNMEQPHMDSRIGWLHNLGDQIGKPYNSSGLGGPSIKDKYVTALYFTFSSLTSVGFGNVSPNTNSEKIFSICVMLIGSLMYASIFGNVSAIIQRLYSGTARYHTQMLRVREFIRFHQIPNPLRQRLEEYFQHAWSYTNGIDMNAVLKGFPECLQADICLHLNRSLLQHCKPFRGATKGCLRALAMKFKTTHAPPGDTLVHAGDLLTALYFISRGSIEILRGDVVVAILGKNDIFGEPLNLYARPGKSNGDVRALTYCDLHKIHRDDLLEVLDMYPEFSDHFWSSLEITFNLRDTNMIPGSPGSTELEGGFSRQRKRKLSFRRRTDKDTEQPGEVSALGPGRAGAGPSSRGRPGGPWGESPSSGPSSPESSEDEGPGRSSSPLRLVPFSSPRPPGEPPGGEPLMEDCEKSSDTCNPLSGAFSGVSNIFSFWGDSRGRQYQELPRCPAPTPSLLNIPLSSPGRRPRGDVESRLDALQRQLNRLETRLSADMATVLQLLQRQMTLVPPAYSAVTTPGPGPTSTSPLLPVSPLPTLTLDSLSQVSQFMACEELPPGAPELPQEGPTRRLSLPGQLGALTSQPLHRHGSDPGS
Procedure: The activity of a representative disclosed compound, compound 3 (N-(3-(6-((3-morpholinophenyl)amino)-1H-pyrazolo[3,4-d]pyrimidin-4-yl)phenyl)acrylamide), was evaluated in a HERG channel assay. Briefly, the compounds were assessed using the Invitrogen Predictor™ hERG Fluorescence Polarization Assay with excitation at 530 nm and emission at 580 nm using a membrane preparation with overexpressed HERG channels. The compound was tested in a 10-point dose response curves in duplicate and using E-4031 (N-[4-[[1-[2-(6-Methyl-2-pyridinyl)ethyl]-4-piperidinyl]carbonyl]phenyl]methanesulfonamide dihydrochloride), a known HERG channel inhibitor, as an assay positive control. The data are shown in FIG. 6, and the figure showns the average inhibition versus the compound.

[4] = po, 10 mg/kg, p.o. (HCl salt), 10 mg/kg oral gavage
[5] = po, 10 mg/kg, p.o. (base form), 10 mg/kg oral gavage

- half-life at 1 μM (Microsomal stability [1]; rat microsomes): 14 min
- Compound Remaining (Microsomal stability [1]; 0 min): 100 % of initial amount
- Compound Remaining (Microsomal stability [1]; 10 min): 55.2 % of initial amount
- Compound Remaining (Microsomal stability [1]; 20 min): 33.6 % of initial amount
- Compound Remaining (Microsomal stability [1]; 30 min): 20.5 % of initial amount
- Compound Remaining (Microsomal stability [1]; 60 min): 5.13 % of initial amount
- microsomal CLint at 1 μM (Microsomal stability [1]; rat microsomes, read-out: CLinit (intrinsic clearance)): 100 µL/min/mg
- IC50 (JAK3): 66.6 nM
- Cmax (Pharmacokinetics in mice; iv, 5 mg/kg): 3520 ng/mL
- Tmax (Pharmacokinetics in mice; iv, 5 mg/kg): 4.8 min
- clearance (Pharmacokinetics in mice; iv, 5 mg/kg): 67 mL/min/kg
- half-life (Pharmacokinetics in mice; iv, 5 mg/kg): 90 min
- AUC(0-t) (Pharmacokinetics in mice; iv, 5 mg/kg, i.v., 5 mg/kg, read-out: AUC0-4): 1180 ng·h/mL
- AUC(0-t) (Pharmacokinetics in mice; iv, 5 mg/kg, i.v., 5 mg/kg, read-out: AUC0-t): 1230 ng·h/mL
- Vd (Pharmacokinetics in mice; iv, 5 mg/kg, read-out: Vss): 2.6 L/kg
- Cmax (Pharmacokinetics in mice; [4]): 465 ng/mL
- Tmax (Pharmacokinetics in mice; [4]): 15 min
- bioavailability (Pharmacokinetics in mice; [4]): 3%
- AUC(0-t) (Pharmacokinetics in mice; po, 10 mg/kg, p.o. (HCl salt), 10 mg/kg oral gavage, read-out: AUC0-4): 357 ng·h/mL
- Cmax (Pharmacokinetics in mice; [5]): 299 ng/mL
- Tmax (Pharmacokinetics in mice; [5]): 30 min
- bioavailability (Pharmacokinetics in mice; [5]): 2.3%
- AUC(0-t) (Pharmacokinetics in mice; po, 10 mg/kg, p.o. (base form), 10 mg/kg oral gavage, read-out: AUC0-4): 270 ng·h/mL
- Compound Remaining (Microsomal stability [2]; 0 min): 100 % of initial amount
- Compound Remaining (Microsomal stability [2]; 10 min): 24.3 % of initial amount
- Compound Remaining (Microsomal stability [2]; 20 min): 6.12 % of initial amount
- Compound Remaining (Microsomal stability [2]; 30 min): 1.62 % of initial amount
- Compound Remaining (Microsomal stability [2]; 60 min): 0.72 % of initial amount
- microsomal CLint at 1 μM (Microsomal stability [2]; mouse microsomes, read-out: CLinit (intrinsic clearance)): 160 µL/min/mg
- half-life at 1 μM (Microsomal stability [2]; mouse microsomes, expressed as < shortest incubation time, read-out: t1/2): < 10 min
- half-life at 1 μM (Microsomal stability [2]; mouse microsomes, read-out: t1/2, calculated half-life in parentheses): 8.6 min
- half-life at 1 μM (Microsomal stability [3]; human microsomes): 16 min
- Compound Remaining (Microsomal stability [3]; 0 min): 100 % of initial amount
- Compound Remaining (Microsomal stability [3]; 10 min): 61.1 % of initial amount
- Compound Remaining (Microsomal stability [3]; 20 min): 36.0 % of initial amount
- Compound Remaining (Microsomal stability [3]; 30 min): 20.4 % of initial amount
- Compound Remaining (Microsomal stability [3]; 60 min): 7.89 % of initial amount
- microsomal CLint at 1 μM (Microsomal stability [3]; human microsomes, read-out: CLinit (intrinsic clearance)): 85 µL/min/mg
SMILES: C=CC(=O)Nc1cccc(-c2nc(Nc3cccc(N4CCOCC4)c3)nc3[nH]ncc23)c1 [Compound 3, N-(3-(6-((3-morpholinophenyl)amino)-1H-pyrazolo[3,4-d]pyrimidin-4-yl)phenyl)acrylamide]
- IC50 (HERG channel): > 10000 nM
